Test results as given in ChEMBL document CHEMBL4622980, “Peptide Inhibitors of Bacterial Protein Synthesis with Broad Spectrum and SbmA-Independent Bactericidal Activity against Clinical Pathogens” (J Med Chem, 2020).
The source made the active and inactive calls. No cut-off for these calls is given here.

What was measured:
[1] = system: Escherichia coli; experiment: Induction of membrane permeabilization in Escherichia coli BW25113 at 1 uM incubated for 30 mins by ONPG/beta-galactosidase assay; assay type: functional, organism-based
[2] = system: Escherichia coli; experiment: Antibacterial activity against Escherichia coli ATCC 25922 assessed as prevention visible bacterial growth incubated for 18 hrs; assay type: functional; details: ATCC 25922, 18 h
[3] = system: Escherichia coli; experiment: Antibacterial activity against Escherichia coli BW25113 assessed as prevention visible bacterial growth incubated for 18 hrs; assay type: functional; details: BW25113, 18 h
[4] = system: Escherichia coli; experiment: Antibacterial activity against Escherichia coli ATCC 25922 assessed as prevention visible bacterial growth incubated for 18 hrs in presence of 10% (v/v) human serum in full MH medium; assay type: functional; details: ATCC 25922, 18 h
[5] = Cytotoxicity in human MEC1 cells assessed as reduction in cell viability incubated for 20 hrs by MTT assay; assay type: cell-based
[6] = system: Escherichia coli; experiment: Antibacterial activity against Escherichia coli BW25113 expressing delta sbmA mutation assessed as prevention visible bacterial growth incubated for 18 hrs; assay type: functional; details: BW25113, 18 h
[7] = system: Klebsiella pneumoniae; experiment: Antibacterial activity against Klebsiella pneumoniae 700603 assessed as prevention visible bacterial growth incubated for 18 hrs; assay type: functional; details: Klebsiella pneumoniae, 700603, 18 h
[8] = system: Acinetobacter baumannii; experiment: Antibacterial activity against Acinetobacter baumannii ATCC 19606 assessed as prevention visible bacterial growth incubated for 18 hrs; assay type: functional; details: ATCC 19606 = CIP 70.34 = JCM 6841, 18 h
[9] = system: Pseudomonas aeruginosa; experiment: Antibacterial activity against Pseudomonas aeruginosa ATCC 27853 assessed as prevention visible bacterial growth incubated for 18 hrs; assay type: functional; details: ATCC 27853, 18 h
[10] = system: Staphylococcus aureus; experiment: Antibacterial activity against Staphylococcus aureus ATCC 25923 assessed as prevention visible bacterial growth incubated for 18 hrs; assay type: functional; details: ATCC 25923, 18 h
[11] = system: Escherichia coli; experiment: Bactericidal activity against Escherichia coli BW25113 assessed as prevention visible bacterial growth incubated for 18 hrs; assay type: functional; details: BW25113, 18 h
[12] = system: Escherichia coli; experiment: Bactericidal activity against Escherichia coli BW25113 expressing delta sbmA mutation assessed as prevention visible bacterial growth incubated for 18 hrs; assay type: functional; details: BW25113, 18 h
[13] = system: Escherichia coli; experiment: Bactericidal activity against Escherichia coli ATCC 25922 assessed as prevention visible bacterial growth incubated for 18 hrs; assay type: functional; details: ATCC 25922, 18 h
[14] = system: Klebsiella pneumoniae; experiment: Bactericidal activity against Klebsiella pneumoniae 700603 assessed as prevention visible bacterial growth incubated for 18 hrs; assay type: functional; details: Klebsiella pneumoniae, 700603, 18 h
[15] = system: Acinetobacter baumannii; experiment: Bactericidal activity against Acinetobacter baumannii ATCC 19606 assessed as prevention visible bacterial growth incubated for 18 hrs; assay type: functional; details: ATCC 19606 = CIP 70.34 = JCM 6841, 18 h
[16] = system: Pseudomonas aeruginosa; experiment: Bactericidal activity against Pseudomonas aeruginosa ATCC 27853 assessed as prevention visible bacterial growth incubated for 18 hrs; assay type: functional; details: ATCC 27853, 18 h
[17] = system: Staphylococcus aureus; experiment: Bactericidal activity against Staphylococcus aureus ATCC 25923 assessed as prevention visible bacterial growth incubated for 18 hrs; assay type: functional; details: ATCC 25923, 18 h
[18] = system: Escherichia coli; experiment: Antibacterial activity against Escherichia coli clinical isolates assessed as prevention visible bacterial growth incubated for 18 hrs; assay type: functional
[19] = system: Escherichia coli; experiment: Ratio of MIC for antibacterial activity against Escherichia coli BW25113 expressing delta sbmA mutation to MIC for antibacterial activity against wild type Escherichia coli BW25113; assay type: functional
[20] = system: Escherichia coli; experiment: Ratio of MBC for antibacterial activity against Escherichia coli BW25113 expressing delta sbmA mutation to MBC for antibacterial activity against wild type Escherichia coli BW25113; assay type: functional
[21] = system: Escherichia coli; experiment: Induction of membrane permeabilization in Escherichia coli BW25113 at 1 to 16 uM incubated for 30 mins by propidium iodide uptake based flow cytometry; assay type: functional, organism-based
[22] = system: Escherichia coli; experiment: Induction of membrane permeabilization in Escherichia coli BW25113 at 1 to 16 uM incubated for 30 mins by ONPG/beta-galactosidase assay; assay type: functional, organism-based
[23] = system: Escherichia coli; experiment: Induction of membrane permeabilization in Escherichia coli BW25113 at 1 to 2 uM incubated for 30 mins by ONPG/beta-galactosidase assay; assay type: functional, organism-based
[24] = system: Escherichia coli; experiment: Inhibition of in-vitro transcription/translation in Escherichia coli lysates at 1 uM incubated for 1 hr by luciferase reporter gene assay relative to control; assay type: functional
[25] = system: Escherichia coli; experiment: Induction of membrane permeabilization in Escherichia coli BW25113 at 8 to 16 uM incubated for 30 mins by propidium iodide uptake based flow cytometry; assay type: functional, organism-based
[26] = system: Escherichia coli; experiment: Induction of membrane permeabilization in Escherichia coli BW25113 at 8 to 16 uM incubated for 30 mins by ONPG/beta-galactosidase assay; assay type: functional, organism-based
[27] = system: Escherichia coli; experiment: Induction of membrane permeabilization in Escherichia coli BW25113 at 16 uM incubated for 30 mins by ONPG/beta-galactosidase assay relative to 1 uM colistin; assay type: functional
[28] = system: Escherichia coli; experiment: Antibacterial activity against Escherichia coli isolate EURL-VTEC C07 assessed as prevention visible bacterial growth incubated for 18 hrs; assay type: functional; details: isolate EURL-VTEC C07, 18 h
[29] = system: Escherichia coli; experiment: Induction of membrane permeabilization in Escherichia coli BW25113 at 4 uM incubated for 30 mins by propidium iodide uptake based flow cytometry; assay type: functional, organism-based
[30] = system: Escherichia coli; experiment: Induction of membrane permeabilization in Escherichia coli BW25113 at 4 uM incubated for 30 mins by ONPG/beta-galactosidase assay; assay type: functional, organism-based

Substance | MIC99 [2] [µM] | MIC99 [3] [µM] | MIC [4] [µM] | CC50 at 20 h [5] [µM] | MIC99 [6] [µM] | MIC99 [7] [µM] | MIC99 [8] [µM] | MIC99 [9] [µM] | MIC99 [10] [µM] | MBC [11] [µM] | MBC [12] [µM] | MBC [13] [µM] | MBC [14] [µM] | MBC [15] [µM] | MBC [16] [µM] | MBC [17] [µM] | MIC99 [18] [µM] | Ratio [19] | Activity [23] | inhibition [24] | other results
COLISTIN |  |  |  |  |  |  |  |  |  |  |  |  |  |  |  |  |  |  |  |  | Activity [1]: Active
H-RRIRPRPPRLPRPRWR-OH | 1 | 1 to 4 | 1.5 | > 64 | 4 | 2 | 12 | > 64 | > 64 | 8 | 16 | 2 | 16 | 24 | 32 | > 64 | > 1 | 2 - 4 | inactive | Active | Ratio [20]: 2 - 4; Activity [21]: inactive; Activity [22]: inactive
H-WRIRPRPPRLPRPRPR-OH | 1 | 1 to 2 | 1 | > 64 | 12 | 16 | 32 | > 64 | > 64 | 1 | 32 | 2 | 64 | 64 | > 64 | > 64 | > 1 |  | inactive | Active | Activity [21]: inactive; Activity [22]: inactive
H-WRIRRRPPRLPRPRWR-OH | 1 | 1 | 6 | > 64 | 3 | 4 | 32 | 64 | 32 | 8 | 4 | 2 | 32 | 32 | 64 | > 64 | > 1 | 2 - 4 | inactive | Active | Ratio [20]: 2 - 4; Activity [25]: Active; Activity [26]: Active; Activity [27]: 30%
H-WRIRRRWPRLPRPRWR-OH | 1 | 2 | 3 | > 64 | 4 | 2 | 4 | 32 | 12 | 4 | 4 | 2 | 8 | 8 | > 64 | > 64 | > 1 | 2 - 4 | inactive | Active | MIC99 [28]: 2 µM; Ratio [20]: 2 - 4; Activity [25]: Active; Activity [29]: Active; Activity [26]: Active; Activity [30]: Active; Activity [27]: 30%
